# Test results from patent publication US12685490B2 (The Board of Trustees of the Leland Stanford Junior …, priority 2020, dated 2026).
# Like-named read-outs stand apart in the source and are kept apart here. Residues, ends and D or L forms follow the SMILES beside them.
# How the values were obtained:
# [1] = system: IAPP cytotoxicity in RIN5fm cells; test: MTT reduction assay: formation of β-cell damaging IAPP assemblies; type: cell-based, rat
# Procedure: (§1) Briefly, RIN5fm cells were cultured and plated in 96-well plates as described. Solutions of IAPP alone and its mixtures with peptides were aged in ThT assay buffer as described under “ThT binding assays”. At the indicated incubation time points (24 h or 7 days) aliquots were diluted with cell culture medium and added to the cells. Following incubation with the cells for ~20 h (37° C., humified atmosphere containing 5% CO2), cell damage was verified by the MTT reduction assay.
# [2] = molecular target: T1, IAPP monomers and fibrils (Homo sapiens, UniProt P10997); test: Dot blot analysis; type: binding; conditions: FAM-LL-37 200 nM, IAPP 40 μg spotted
# T1 construct: made in house; host or cells: chemical synthesis (Fmoc solid-phase, Rink resin)
# T1 sequence (P10997 34-70 limits assumed): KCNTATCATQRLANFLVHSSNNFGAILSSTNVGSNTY
# Procedure: IAPP monomers or IAPP fibrils (fIAPP) containing solutions (different amounts up to 40 μg) were spotted onto a nitrocellulose membrane. These solutions were prepared by incubating an IAPP solution (1 mg/ml) in ThT assay buffer for 0 h (“monomers”) or 24 h (“fibrils”); the presence of fibrils was confirmed by ThT binding and TEM (not shown). The membrane was washed with TBSn (20 mM Tris/HCl, 150 mM NaCl and 0.05% Tween-20), blocked with 5% milk in TBSn overnight at 10° C., and washed again with TBSn. […] Following washings with incubation buffer and TBSn, bound FAM-LL-37 was visualized with a LAS-4000mini instrument (Fujifilm). Of note, glucagon fibrils were spotted as well to control for the specificity of the observed strong binding of FAM-LL-37 to fIAPP (not shown). Glucagon fibrils were made by incubating glucagon in 10 mM HCl (2 μg/μl) (10 days) followed by neutralization with 10 mM NaOH; ThT binding and TEM confirmed fibril formation (not shown). The ThT buffer alone was also spotted to control for NSB. In addition, to control for the interference of fibril autofluorescence, a membrane containing spotted fIAPP which had been incubated in buffer alone w/o FAM-LL-37 was included in each assay; in general, fIAPP autofluorescence contributed up to 25% of the total amount of fluorescence observed in fIAPP bound to FAM-LL-37.
# IAPP [3] = molecular target: T2, IAPP (Homo sapiens, UniProt P10997); test: Thioflavin T (ThT) binding assay of IAPP fibrillogenesis; type: biochemical; conditions: for effect on IAPP amyloid self-assembly (fibrillogenesis): IAPP/peptide 1/1
# T2 construct: made in house; host or cells: chemical synthesis (Fmoc solid-phase, Rink resin)
# T2 sequence (P10997 34-70 limits assumed): T1 sequence (P10997 34-70 limits assumed)
# Procedure: Of note, an incubation of LL-37 alone was also included. At the indicated time points aliquots were mixed with the ThT solution consisting of 20 μM ThT in 0.05 M glycine/NaOH (pH 8.5) and binding was determined by measuring fluorescence emission at 486 nm upon excitation at 450 nm using a Multilabel reader VictorX3 (Perkin Elmer Life Sciences). […] An aliquot of a solution consisting mostly of IAPP fibrils (fIAPP) based on ThT binding and TEM (FIGS. 18-19) (7 days aged IAPP (16.5 μM) made as above) was added to the incubations resulting in a final seed (fIAPP) concentration of 1.65 μM. Incubations of (unseeded) IAPP alone (16.5 μM) and of 10% fIAPP alone were included as controls. ThT binding was determined at the indicated time points as above. […] Solutions containing (unseeded) IAPP alone (16.5 μM), IAPP seeded with fIAPP (10%), and IAPP seeded with LL-37-treated fIAPP (10%) were made in ThT assay buffer and kinetics of fibrillogenesis were determined by the ThT binding assay as described above.
# RIN5fm cells = type: cell-based, rat
# Procedure: as §1
# Fluos-IAPP = molecular target: T3, Fluos-IAPP (Homo sapiens, UniProt P10997); test: Fluorescence spectroscopic titrations; type: binding; conditions: for Kd: pH 7.4, mean (SD) of 3 binding curves, read-out: app. Kd
# T3 construct: made in house; host or cells: chemical synthesis
# T3 sequence (P10997 34-70 limits assumed): T1 sequence (P10997 34-70 limits assumed)
# Procedure: Fluorescence spectroscopic titration studies were performed with a JASCO FP-6500 fluorescence spectrophotometer using a previously described experimental protocol. Briefly, excitation was at 492 nm and emission spectra were recorded between 500 and 600 nm. […] For all experiments, freshly made stocks of peptides and their fluorescently labeled analogs in HFIP were used. Measurements were performed in 10 mM sodium phosphate buffer (pH 7.4) containing 1% HFIP within 2-5 min following solution preparation at room temperature. Of note, under these conditions freshly made Fluos-IAPP (5 nM) solutions consist mostly of monomers. App. Kds were calculated using 1/1 binding models as previously described and are means (±SD) of three binding curves.
# IAPP [4] = molecular target: T2, IAPP; test: Far-UV CD spectroscopy of IAPP conformation and misfolding; conditions: 1/1, 5 μM each, pH 7.4
# Procedure: Far-UV CD studies were performed using a Jasco 715 spectropolarimeter. Spectra were recorded at room temperature between 195 and 250 nm, at 0.1 nm intervals, and with a response time of 1 second. Each spectrum is an average of 3 spectra. All CD studies were performed in aqueous 10 mM sodium phosphate buffer (pH 7.4) containing 1% HFIP (CD assay buffer) at room temperature; this assay system has been earlier developed and found to be suitable for following kinetics of IAPP (5 μM) misfolding into β-sheets and amyloid fibrils alone or in the presence of inhibitors. Briefly, peptide stocks in HFIP were freshly made (4° C.), diluted with assay buffer (room temperature) at the indicated concentrations within the cuvette, and following gentle mixing spectra were measured immediately or at the indicated incubation time points. […] The CD spectrum of IAPP at the incubation time point of 24 h (endpoint) was measured after gentle mixing to re-dissolve precipitated aggregates. The CD spectrum of the buffer was always subtracted from the CD spectra of the peptide solutions.
# IAPP [5] = molecular target: T2, IAPP; test: Cross-linking, NuPAGE and Western blot; conditions: IAPP 30 μM, 1/1, pH 7.4
# Procedure: Cross-linking studies were preformed using a previously developed assay system. […] Solutions were cross-linked using 25% aqueous glutaraldehyde (Sigma-Aldrich) and 10% aqueous trichloroacetic acid (TCA) was used to precipitate cross-linked peptides. Pellets were dissolved in reducing NuPAGE sample buffer, boiled for 5 min, and subjected to NuPAGE electrophoresis in 4-12% Bis-Tris gels with MES running buffer (Invitrogen). The same volume of each solution (same IAPP amount) was loaded in all lanes. Peptides were blotted using a XCell II Blot Module blotting system (Invitrogen).
# [6] = system: autoimmune diabetes in NOD mice; conditions: prediabetic NOD mice; cited from earlier work
# [7] = aged IAPP/peptide mixtures 1/1, RIN5fm cells
compound,measurement,setting,value
"CC[C@H](C)[C@H](NC(=O)[C@H](CCCCN)NC(=O)[C@H](CO)NC(=O)[C@H](Cc1ccccc1)NC(=O)[C@H](CCC(=O)O)NC(=O)[C@H](Cc1ccccc1)NC(=O)[C@H](CCCNC(=N)N)NC(=O)[C@H](CC(C)C)NC(=O)[C@H](CCCCN)NC(=O)[C@H](CC(C)C)NC(=O)CN)C(=O)N[C@@H](CCCCN)C(=O)NCC(=O)N[C@@H](CCC(=O)O)C(=O)N[C@@H](Cc1ccccc1)C(=O)N[C@@H](CC(C)C)C(=O)N[C@@H](CCCCN)C(=O)N[C@H](C(=O)N1CCC[C@H]1C(=O)N[C@@H](CCC(=O)O)C(=O)N[C@H](C(=O)N[C@@H](CCCNC(=N)N)C(=O)N[C@@H](Cc1ccccc1)C(=O)N[C@@H](CCCNC(=N)N)C(=O)N[C@@H](CC(=O)O)C(=O)N[C@H](C(=O)N[C@@H](CCCCN)C(=O)N[C@@H](CC(C)C)C(=O)N[C@@H](CCCCN)C(=O)N[C@@H](CC(=O)O)C(=O)N[C@@H](CC(N)=O)C(=O)N[C@@H](CCCNC(=N)N)C(=O)N[C@H](C(=O)N[C@@H](CO)C(=O)N[C@H](C(=O)N[C@@H](CCC(N)=O)C(=O)N[C@@H](CCCNC(=N)N)C(=O)O)C(C)C)[C@@H](C)CC)[C@@H](C)CC)C(C)C)[C@@H](C)O [scrLL-37, reference compound] (H-GLKLRFEFSKIKGEFLKTPEVRFRDIKLKDNRISVQR-OH)",effect on IAPP cytotoxicity,"[1]; up to 10-fold molar excess of peptide, 7 days aged, RIN5fm cells",unable to inhibit
FAM-LL-37: N-amino-terminal fluorescein labeled LL-37 with a 6-aminohexanoic acid spacer between FAM and the N-terminus,binding to IAPP monomers and fibrils,[2],bound both IAPP fibrils and monomers
CC[C@H](C)[C@H](NC(=O)[C@H](CCCCN)NC(=O)[C@H](CCC(=O)O)NC(=O)[C@H](CCCCN)NC(=O)[C@H](CO)NC(=O)[C@H](CCCCN)NC(=O)[C@H](CCCNC(=N)N)NC(=O)[C@H](Cc1ccccc1)NC(=O)[C@H](Cc1ccccc1)NC(=O)[C@H](CC(=O)O)NC(=O)CNC(=O)[C@H](CC(C)C)NC(=O)[C@@H](N)CC(C)C)C(=O)NCC(=O)N[C@@H](CCCCN)C(=O)N[C@@H](CCC(=O)O)C(=O)N[C@@H](Cc1ccccc1)C(=O)N[C@@H](CCCCN)C(=O)N[C@@H](CCCNC(=N)N)C(=O)N[C@H](C(=O)N[C@H](C(=O)N[C@@H](CCC(N)=O)C(=O)N[C@@H](CCCNC(=N)N)C(=O)N[C@H](C(=O)N[C@@H](CCCCN)C(=O)N[C@@H](CC(=O)O)C(=O)N[C@@H](Cc1ccccc1)C(=O)N[C@@H](CC(C)C)C(=O)N[C@@H](CCCNC(=N)N)C(=O)N[C@@H](CC(N)=O)C(=O)N[C@@H](CC(C)C)C(=O)N[C@H](C(=O)N1CCC[C@H]1C(=O)N[C@@H](CCCNC(=N)N)C(=O)N[C@H](C(=O)N[C@@H](CCC(=O)O)C(=O)N[C@@H](CO)C(=O)O)[C@@H](C)O)C(C)C)[C@@H](C)CC)C(C)C)[C@@H](C)CC [LL-37],effect on IAPP amyloid self-assembly (fibrillogenesis),IAPP [3]; IAPP 16.5 μM,effectively suppressed IAPP amyloid self-assembly
same,effect on seeding of IAPP fibrillogenesis by fIAPP (10%),"IAPP [3]; IAPP 16.5 μM, LL-37 1/1, 10% fIAPP seeds",fully suppressed
same,seeding ability of fIAPP after treatment with peptide,"IAPP [3]; fIAPP incubated with LL-37 (10-fold) for 24 h, used as 10% seeds",converts them into seeding incompetent assemblies
same,effect on formation of cytotoxic IAPP assemblies (cell-damaging effects),[1],effectively suppressed formation of cytotoxic IAPP assemblies
same,IC50,[1]; rat,0.017 µM
same,cytotoxicity of peptide alone,RIN5fm cells,not cytotoxic
same,increase of Fluos-IAPP fluorescence emission,"Fluos-IAPP; Fluos-IAPP 5 nM, 100-fold molar excess of LL-37",322%
same,Kd,Fluos-IAPP; Fluos-IAPP 5 nM,0.0881 µM
same,effect on IAPP conformation / misfolding,IAPP [4],strong time-dependent increase of random coil contents and no precipitation occurred
same,hetero-assemblies with IAPP by cross-linking,IAPP [5],formation of IAPP-LL-37 hetero-tetramers
CRAMP,effect on autoimmune diabetes,[6],dampening the incidence of autoimmune diabetes
CC[C@H](C)[C@H](NC(=O)[C@H](CCCNC(=N)N)NC(=O)[C@H](CCC(N)=O)NC(=O)[C@@H](NC(=O)[C@@H](NC(=O)[C@H](CCCNC(=N)N)NC(=O)[C@H](CCCCN)NC(=O)[C@H](Cc1ccccc1)NC(=O)[C@H](CCC(=O)O)NC(=O)[C@@H](N)CCCCN)[C@@H](C)CC)C(C)C)C(=O)N[C@@H](CCCCN)C(=O)N[C@@H](CC(=O)O)C(=O)N[C@@H](Cc1ccccc1)C(=O)N[C@@H](CC(C)C)C(=O)N[C@@H](CCCNC(=N)N)C(=O)N[C@@H](CC(N)=O)C(=O)N[C@@H](CC(C)C)C(=O)N[C@H](C(=O)N1CCC[C@H]1C(=O)N[C@@H](CCCNC(=N)N)C(=O)N[C@H](C(=O)N[C@@H](CCC(=O)O)C(=O)N[C@@H](CO)C(=O)O)[C@@H](C)O)C(C)C [LL-37(15-37)] (H-KEFKRIVQRIKDFLRNLVPRTES-OH; N-terminus assumed),effect on IAPP amyloid self-assembly (fibrillogenesis),IAPP [3]; IAPP 16.5 μM,unable to interfere
same,effect on formation of cytotoxic IAPP assemblies (cell-damaging effects),[1]; [7],unable to interfere
same,Kd,Fluos-IAPP; Fluos-IAPP 5 nM,0.0319 µM
CC[C@H](C)[C@H](NC(=O)[C@H](CCCCN)NC(=O)[C@H](CCC(=O)O)NC(=O)[C@H](CCCCN)NC(=O)[C@H](CO)NC(=O)[C@H](CCCCN)NC(=O)[C@H](CCCNC(=N)N)NC(=O)[C@H](Cc1ccccc1)NC(=O)[C@H](Cc1ccccc1)NC(=O)[C@H](CC(=O)O)NC(=O)CNC(=O)[C@H](CC(C)C)NC(=O)[C@@H](N)CC(C)C)C(=O)NCC(=O)O [LL-37(1-14)] (H-LLGDFFRKSKEKIG-OH; N-terminus assumed),effect on IAPP amyloid self-assembly (fibrillogenesis),IAPP [3]; IAPP 16.5 μM,unable to interfere
same,effect on formation of cytotoxic IAPP assemblies (cell-damaging effects),[1]; [7],unable to interfere
same,Kd,Fluos-IAPP; Fluos-IAPP 5 nM,2.54 µM
same,weaker binding to Fluos-IAPP,Fluos-IAPP; app. Kd comparison,~ 30 fold
